How the values were obtained:
[1] = test system: MDA-MB-435 oestrogen receptor-negative human breast cancer cells; conditions: MDA-MB-435 cells; [3H] thymidine incorporation; cited from earlier work
cancer cells = test: Inhibition of cancer cells in cell culture models; assay type: cell-based
Excerpt: (§1) Limon glucoside is a triterpene derivative, in which aglycone part is linked to a glucose moiety, and it is water-soluble. Citrus plants containing the above-named limonoid glucoside derivatives belong to the Rutaceae family, and include, for example, Citrus paradisi and Citrus aurantium. The fresh fruits of Citrus paradisi (Rio Red grapefruit) and Citrus aurantium (sour orange) are currently produced in large amounts as acidulants for preparing juice and pickles in various parts of the World, and thus are readily available sources for extraction of limonoid glucosides. A method or process for isolating limonoid glucosides in gram quantities was devised.

Water solubility = assay type: physicochemical
Excerpt: as §1

Anti-oxidant properties = test: Anti-oxidant properties
Excerpt: This offers potential advantages over the use of synthetic methods which require more complicated procedures to prepare pure limonoid compounds.

[2] = test system: DMBA-induced buccal pouch tumours; conditions: hamsters; cited from earlier work
[3] = test system: azoxymethane (AOM)-induced aberrant crypt foci (ACF); conditions: dietary intake; initiation and post-initiation feeding experiments; male F344 rats; cited from earlier work
[4] = test system: 7,12-dimethylbenz[a]anthracene (DMBA)-induced buccal pouch epidermoid carcinomas; conditions: cited from earlier work; for incidence of DMBA-induced buccal pouch epidermoid carcinomas: female Syrian hamsters
[5] = test system: benzo[a]pyrene-induced forestomach neoplasia; conditions: mice; cited from earlier work

Compound | IC50, inhibition of proliferation [1] [µg/mL] | inhibition of cancer cells (cancer cells) | anti-oxidant properties (Anti-oxidant properties) | decrease of average tumour burden [2] | further results
CC1(C)O[C@H]2CC(=O)OC[C@]23[C@H]2CC[C@@](C)([C@@H](O[C@@H]4O[C@H](CO)[C@@H](O)[C@H](O)[C@H]4O)c4ccoc4)[C@@]4(O[C@@H]4C(=O)O)[C@]2(C)C(=O)C[C@@H]13 [Compound (2), limonin-17-β-D-glucopyanoside] | 75 | exhibited inhibition | exhibit anti-oxidant properties | effective | water solubility (Water solubility): water-soluble
CC1(C)O[C@H]2CC(=O)OC[C@]23[C@H]2CC[C@@]4(C)[C@H](c5ccoc5)OC(=O)[C@H]5O[C@]54[C@]2(C)C(=O)C[C@@H]13 [limonin] | 12.5 | – | – | – | formation of aberrant crypt foci (ACF) [3]: significantly inhibited; incidence of DMBA-induced buccal pouch epidermoid carcinomas [4]: reduced the incidence; comparative inhibition of DMBA-induced neoplasia ([4]; limonin compared with nomilin): more effective inhibitor
CC(=O)O[C@H]1CC(=O)OC(C)(C)[C@@H]2CC(=O)[C@]3(C)[C@H](CC[C@@]4(C)[C@H](c5ccoc5)OC(=O)[C@H]5O[C@]543)[C@@]12C [nomilin] | 0.4 | – | – | – | incidence of DMBA-induced buccal pouch epidermoid carcinomas [4]: reduced the incidence; inhibition of benzo[a]pyrene-induced forestomach neoplasia [5]: inhibited
CC1(C)OC(=O)C=C[C@]2(C)[C@H]3CC[C@@]4(C)[C@H](c5ccoc5)OC(=O)[C@H]5O[C@]54[C@]3(C)C(=O)C[C@@H]12 [obacunone] | – | – | – | – | formation of aberrant crypt foci (ACF) [3]: significantly inhibited
deacetyl nomilinic acid glucoside [Compound (3)] | – | exhibited inhibition | exhibit anti-oxidant properties | – | –
isoobacunoic-17-β-D-glucopyranoside [Compound (1)] | – | exhibited inhibition | exhibit anti-oxidant properties | – | –
nomilin 17-β-D-glucopyranoside [NG] | – | – | – | only LG was effective | –
nomilinic acid 17-β-D-glucopyranoside [NAG] | – | – | – | only LG was effective | –

Reference: patent US20070237885A1, “PROCESS FOR THE ISOLATION OF LIMONOID GLUCOSIDES FROM CITRUS” (THE TEXAS A & M UNIVERSITY SYSTEM, priority 2006, published 2007)
